# Paper PMC8072580, “Predicting Pharmacokinetic Properties of Potential Anticancer Agents via Their Chromatographic Behavior on Different Reversed Phase Materials” (International Journal of Molecular Sciences, 2021)
# Assays:
# [1] = Micellar liquid chromatography (MLC), ODS-2 column, Brij 35 effluent: chromatographic lipophilicity; assay type: physicochemical; details: pH 7.4, ODS-2 column, 25 °C
# From the text: There are several theories that describe the effect of the concentration of the surfactant in the effluent on the retention of the solute in MLC [23]. The following Foley’s equation is best known in lipophilicity studies:(2) 1/k=1/km+KAM/km[M] where [M] is the total concentration of the surfactant in the mobile phase minus CMC; KAM is the constant that describes solute-micelle binding; and km is the solute retention parameter at the micellar concentration of zero, i.e., when the concentration of the surfactant monomer is equal to CMC. The KAM and km parameters can be evaluated from the slope and intercept of the experimental 1/k vs. [M] relationships.
# Equation (2) describes a linear dependence between decreasing retention and increasing micelle concentration. This equation is valid for aqueous solutions of surfactant or mobile phases with the same concentrations of the organic modifier. The micellar retention parameter, log km, is considered analogous to the log kw parameter evaluated in RPLC. According to the information presented above, this parameter is considered to be a lipophilicity descriptor, and Equation (2) is a simple way to indirectly determine the lipophilic properties of compounds. It is postulated that retention in micellar chromatography depends on hydrophobic (lipophilic), electronic, and steric features of the compounds in a similar way as has been noted concerning pharmacokinetic phenomena. The additional similarity results from the fact that the phospholipids, cholesterol, fatty acids, and triglycerides included in the extracellular and intracellular fluids also form micelles with proteins.
# In our investigations, the micellar retention factors were used to calculate the log km parameters using Equation (2) (Table 2). For all of the compounds 1-19, the relationships of 1/k vs. [M] were obtained with very good linearity, confirming that Foley’s equation correctly describes the effect of the concentration of the surfactant in the effluent on the retention of the solute. In our studies, the micellar log km parameters for three pharmacologically active sets of compounds 1-6, 7-14, and 15-19 and the log k factors for solutes 15-19 obtained on IAM and end-capped ODS stationary phases were determined experimentally. All these retention factors, together with the log kw values for compounds 1-14 obtained in our earlier investigations on IAM and end-capped ODS stationary phases, were used as lipophilicity descriptors in the QSARs methodology to predict the pharmacokinetic descriptors of the compounds that were tested.
# Shimadzu Vp (Shimadzu, Izabelin, Polska) liquid chromatographic system was used in HPLC measurements. It was equipped with an LC 10AT pump, SPD 10A UV–Vis detector, SCL 10A system controller, CTO-10 AS chromatographic oven, and Rheodyne injector valve with a 20 μL loop. As the stationary phases, 3 different revered-phase materials were applied: Spherisorb ODS-2 column, 125 × 4 mm i.d., 5 μm (Merck, Lublin, Poland), Regis IAM.PC.DD2 column, 100 × 4.6 mm i.d., 10 μm (Morton Grove, Illinois, USA), and Purosphere RP-18e column, 125 × 4 mm i.d., 5 μm (Merck, Lublin, Poland).
# In the MLC technique with an ODS-2 column, buffered Brij 35 mixtures (0.15; 0.125, 0.10, and 0.075 mol/L) with 7% (v/v) addition of isopropanol were used as mobile phases. The buffer was prepared from 0.01 mol/L solutions of Na2HPO4 and citric acid, and the pH 7.4 value was fixed before mixing with an organic modifier. The flow rate was 1 mL/min. Buffered acetonitrile mixtures were used as effluents with the IAM column. Acetonitrile concentration, expressed as a volume fraction, was changed in the range of 0.2–0.5, with the constant step of 0.1. The flow rate was 1.3 mL/min. Acetonitrile concentration was changed in the range of 0.3–0.6 with the RP-18e column, with the constant step of 0.1 and flow rate of 0.1 mL/min. As solutes tested there were used 19 newly designed structurally related compounds. […]
# [2] = design: method as in PMID 31864156; details: IAM.PC.DD2 column, buffered acetonitrile; cited from earlier work
# [3] = design: method as in PMID 31864156; details: end-capped ODS column, aqueous acetonitrile; cited from earlier work
# Danio rerio = tested on: Danio rerio; design: method as in PMID 33390035; details: cited from earlier work
# human cancer cells = tested on: human cancer cells; design: method as in PMID 31864156, PMID 16545495, PMID 25528370; details: cited from earlier work
# [4] = 0.075 M Brij 35, 7% isopropanol
# [5] = 0.125 M Brij 35, 7% isopropanol
Structure (SMILES),"k (MLC retention factor) [1, 4]","k (MLC retention factor) ([1]; 0.1 M Brij 35, 7% isopropanol)","k (MLC retention factor) [1, 5]","k (MLC retention factor) ([1]; 0.15 M Brij 35, 7% isopropanol)","log kw,IAM [2]","log kw,ODS [3]",safety for early life stages of Danio rerio compared with pemetrexed (Danio rerio),antiproliferative effects in cancer cells compared with normal cells (human cancer cells)
CC(C)c1nnc2n(c1=O)CCN2c1ccccc1 [Compound 1],13.73,12.03,10.47,10.53,0.76 [19],1.59 [19],,
Cc1ccc(N2CCn3c2nnc(C(C)C)c3=O)cc1 [Compound 2],25.51,21.45,18.25,17.34,1.05 [19],2.01 [19],,
CC(C)c1nnc2n(c1=O)CCN2c1ccccc1Cl [Compound 3],8.98,8.18,7.46,7.20,0.65 [19],1.42 [19],,
CC(C)c1nnc2n(c1=O)CCN2c1cccc(Cl)c1 [Compound 4],39.84,31.65,24.39,22.52,1.49 [19],2.38 [19],,
CC(C)c1nnc2n(c1=O)CCN2c1ccc(Cl)cc1 [Compound 5],41.53,33.76,26.18,24.10,1.39 [19],2.32 [19],,
CC(C)c1nnc2n(c1=O)CCN2c1ccc(Cl)c(Cl)c1 [Compound 6],60.81,46.76,34.01,29.82,1.67 [19],2.68 [19],,
O=c1c(C(F)(F)F)nnc2n1CCN2c1ccccc1 [Compound 7],14.11,12.22,10.72,10.02,0.94 [19],1.92 [19],safer for the early life stages of Danio rerio than pemetrexed,
Cc1ccc(N2CCn3c2nnc(C(F)(F)F)c3=O)cc1 [Compound 9],25.67,21.44,17.64,16.14,1.25 [19],2.16 [19],,
COc1ccccc1N1CCn2c1nnc(C(F)(F)F)c2=O [Compound 10],5.89,5.40,5.04,4.79,0.67 [19],1.65 [19],,clearly higher antiproliferative effects in cancer cells than in normal cells
